Laboratory results reported in PubChem BioAssay AID330 (DTP/NCI, 2004).
“And” between values parts separate entries of the source, which are not always exact repeats. Identical values can stand only once. Inconclusive results and toxic doses are left out.

Tested on: P388 leukemia ip, CD2F1 mice, survival T/C
Test: NCI In Vivo Anticancer Drug Screen. Data for tumor model P388 Leukemia (intraperitoneal) in CD2F1 (CDF1) mice
Settings: endpoint: median survival time, higher = longer survival
In short: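 Mice carrying the transplanted tumor received test compound or vehicle. Survival was recorded in each group, and the value is the treated-group measurement divided by that of the vehicle-treated control group.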

[1] = dose: 100.0 mg/kg/injection, schedule: Q01DX001 (ip), vehicle: saline with Tween-80
[2] = dose: 200.0 mg/kg/injection, schedule: Q01DX001 (ip), vehicle: saline with Tween-80
[3] = dose: 60.0 mg/kg/injection, schedule: Q01DX005 (ip), vehicle: Klucel (hydroxypropylcellulose) (HPC)
[4] = dose: 120.0 mg/kg/injection, schedule: Q01DX005 (ip), vehicle: Klucel (hydroxypropylcellulose) (HPC)
[5] = dose: 240.0 mg/kg/injection, schedule: Q01DX005 (ip), vehicle: Klucel (hydroxypropylcellulose) (HPC)
[6] = dose: 50.0 mg/kg/injection, schedule: Q01DX005 (ip), vehicle: Klucel (hydroxypropylcellulose) (HPC)
[7] = dose: 100.0 mg/kg/injection, schedule: Q01DX005 (ip), vehicle: Klucel (hydroxypropylcellulose) (HPC)
[8] = dose: 60.0 mg/kg/injection, schedule: Q01DX005 (ip), vehicle: saline with Tween-80
[9] = dose: 120.0 mg/kg/injection, schedule: Q01DX005 (ip), vehicle: saline with Tween-80
[10] = dose: 240.0 mg/kg/injection, schedule: Q01DX005 (ip), vehicle: saline with Tween-80
[11] = dose: 50.0 mg/kg/injection, schedule: Q01DX009 (ip), vehicle: saline with Tween-80
[12] = dose: 100.0 mg/kg/injection, schedule: Q01DX009 (ip), vehicle: saline with Tween-80
[13] = dose: 200.0 mg/kg/injection, schedule: Q01DX009 (ip), vehicle: saline with Tween-80
[14] = dose: 50.0 mg/kg/injection, schedule: Q01DX009 (ip), vehicle: Klucel (hydroxypropylcellulose) (HPC)
[15] = dose: 100.0 mg/kg/injection, schedule: Q01DX009 (ip), vehicle: Klucel (hydroxypropylcellulose) (HPC)
[16] = dose: 200.0 mg/kg/injection, schedule: Q01DX009 (ip), vehicle: Klucel (hydroxypropylcellulose) (HPC)
[17] = dose: 15.0 mg/kg/injection, schedule: Q01DX005 (ip), vehicle: saline with Tween-80
[18] = dose: 50.0 mg/kg/injection, schedule: Q01DX009 (ip), vehicle: saline
[19] = dose: 100.0 mg/kg/injection, schedule: Q01DX009 (ip), vehicle: saline
[20] = dose: 200.0 mg/kg/injection, schedule: Q01DX009 (ip), vehicle: saline
[21] = dose: 12.5 mg/kg/injection, schedule: Q01DX009 (ip), vehicle: other
[22] = dose: 25.0 mg/kg/injection, schedule: Q01DX009 (ip), vehicle: other
[23] = dose: 50.0 mg/kg/injection, schedule: Q01DX009 (ip), vehicle: other
[24] = dose: 100.0 mg/kg/injection, schedule: Q01DX009 (ip), vehicle: other

`CC1=CC(=O)C(O)C2(C)C1CC1OC(=O)C(OC(=O)CC(C)(C)O)C3C(C)C(O)C4(O)OCC13C42` (configuration not stated) was tested, and the T/C (dose: 0.5 mg/kg/injection, schedule: Q01DX009 (ip), vehicle: saline + alcohol) was 115 % of control, the T/C (dose: 1.0 mg/kg/injection, schedule: Q01DX009 (ip), vehicle: saline + alcohol) was 118 % of control and the T/C (dose: 2.0 mg/kg/injection, schedule: Q01DX009 (ip), vehicle: saline + alcohol) was 119 % of control. For the same molecule, the T/C (dose: 8.0 mg/kg/injection, schedule: Q01DX009 (ip), vehicle: saline + alcohol) was 118 % of control.

For `CC(=O)Oc1ccc(OC(C)=O)c2c(OC(C)=O)c(C3CCC(C)(C)O3)cc(OC(C)=O)c12` (configuration not stated), the T/C (dose: 12.5 mg/kg/injection, schedule: Q04DX002 (ip), vehicle: saline with Tween-80) was 106 % of control and the T/C (dose: 25.0 mg/kg/injection, schedule: Q04DX002 (ip), vehicle: saline with Tween-80) was 118 % of control.

`CC1=NC2=CC=CC3=NC(C(Cl)(Cl)Cl)=NC(=N1)N23` was tested, and the T/C (dose: 60.0 mg/kg/injection, schedule: Q01DX005 (ip), vehicle: Klucel + Tween-80) was 102 % of control, the T/C (dose: 120.0 mg/kg/injection, schedule: Q01DX005 (ip), vehicle: Klucel + Tween-80) was 102 % of control and the T/C (dose: 240.0 mg/kg/injection, schedule: Q01DX005 (ip), vehicle: Klucel + Tween-80) was 102 % of control.

`CC12OCCC1C(c1ccccc1[N+](=O)[O-])Nc1ccccc12` (configuration not stated) was tested, and the T/C [1] was 114 % of control, the T/C [2] was 97 % of control and the T/C (dose: 400.0 mg/kg/injection, schedule: Q01DX001 (ip), vehicle: saline with Tween-80) was 94 % of control.

`O=C1C(=O)N(c2ccccc2)[C@@]2(c3ccccc3)C(=Nc3ccccc3)OC(c3ccccc3)=C12` was tested, and the T/C [3] was 90 % of control, the T/C [4] was 90 % of control and the T/C [5] was 88 % of control.

For `Cc1ccc(S(=O)(=O)OC2CN(C)CC=C2c2ccccc2)cc1` (configuration not stated), the T/C (dose: 12.5 mg/kg/injection, schedule: Q01DX005 (ip), vehicle: Klucel (hydroxypropylcellulose) (HPC)) was 105 % of control, the T/C (dose: 25.0 mg/kg/injection, schedule: Q01DX005 (ip), vehicle: Klucel (hydroxypropylcellulose) (HPC)) was 104 % of control and the T/C [6] was 99 % of control. For the same molecule, the T/C [7] was 99 % of control.

With `COn1nnc2ccc([N+](=O)[O-])cc21` the T/C (dose: 50.0 mg/kg/injection, schedule: Q01DX001 (ip), vehicle: saline with Tween-80) was 99 % of control, the T/C [1] was 101 % of control and the T/C [2] was 92 % of control.

For `CC(C)C(Nc1nncs1)Nc1nncs1`, the T/C [8] was 103 % of control, the T/C [9] was 109 % of control and the T/C [10] was 118 % of control.

`c1cc[c]([Sn][c]2ccccc2)cc1` was tested, and the T/C (dose: 2.5 mg/kg/injection, schedule: Q01DX009 (ip), vehicle: saline) was 151 % of control.

For `CC(C)(C)N=C(CCN1CCOCC1)Nc1cccc(Cl)c1`, the T/C [11] was 100 % of control, the T/C [12] was 96 % of control and the T/C [13] was 97 % of control.

`C[Si](C)(C)N1C(=O)c2ccccc2C1=O` was tested, and the T/C [14] was 100 % of control, the T/C [15] was 115 % of control and the T/C [16] was 107 % of control.

In the case of `Cc1cc2c(cc1C)n1c(=O)n(C)c(=O)c(C#N)c1n2C`, the T/C (dose: 7.5 mg/kg/injection, schedule: Q01DX005 (ip), vehicle: saline with Tween-80) is reported as 100 % of control and the T/C [17] is reported as 101 % of control.

With `COCCCN(Cc1cc(OC)c(OC)c(OC)c1)C(=S)Nc1cccc(SC)c1` the T/C [18] was 101 % of control, the T/C [19] was 100 % of control and the T/C [20] was 99 % of control.

For `COC(=O)c1cc2cc3ccccc3cc2cc1C(=O)OC`, the T/C [17] was 100 % of control, the T/C (dose: 30.0 mg/kg/injection, schedule: Q01DX005 (ip), vehicle: saline with Tween-80) was 101 % of control and the T/C [8] was 102 % of control.

For `CC(C)OP(=S)(S)OC(C)C`, the T/C [18] was 114 % of control, the T/C [19] was 118 % of control and the T/C [20] was 97 % of control.

With `CC(=O)N/N=C/c1ccccc1[N+](=O)[O-]` the T/C [21] was 97 % of control, the T/C [22] was 96 % of control and the T/C [23] was 98 % of control. The T/C [24] was 107 % of control.

With `CC1=C/C(=C(\c2ccccc2)c2cc(C)c(O)c(CNCC(=O)O)c2)C=C(CNCC(=O)O)C1=O` the T/C (dose: 60.0 mg/kg/injection, schedule: Q01DX005 (ip), vehicle: saline) was 95 % of control, the T/C (dose: 120.0 mg/kg/injection, schedule: Q01DX005 (ip), vehicle: saline) was 103 % of control and the T/C (dose: 240.0 mg/kg/injection, schedule: Q01DX005 (ip), vehicle: saline) was 108 % of control.

For `O=C(NNS(=O)(=O)CCC(NC(=O)OCc1ccccc1)C(=O)OCc1ccccc1)OCc1ccccc1` (configuration not stated), the T/C [21] was 110 % of control, the T/C [22] was 102 % of control and the T/C [23] was 96 % of control. For the same molecule, the T/C [24] was 96 % of control.

With `O=C1NC(c2ccccc2)C(c2ccccc2)(c2ccccc2)O1` (configuration not stated) the T/C [11] was 93 % of control and the T/C [12] was 86 % of control.

In the case of `Cc1ccc(-c2csc3nc(C)c(CN4CCCCC4)c(=O)n23)cc1`, the T/C (dose: 75.0 mg/kg/injection, schedule: Q04DX002 (ip), vehicle: Klucel (hydroxypropylcellulose) (HPC)) is reported as 113 % of control, the T/C (dose: 150.0 mg/kg/injection, schedule: Q04DX002 (ip), vehicle: Klucel (hydroxypropylcellulose) (HPC)) is reported as 103 % of control and the T/C (dose: 300.0 mg/kg/injection, schedule: Q04DX002 (ip), vehicle: Klucel (hydroxypropylcellulose) (HPC)) is reported as 113 % of control.

With `COc1cc(OC)c(NC(=O)C2=C(C)NC(C)=C(C(=O)Nc3cc(Cl)c(OC)cc3OC)C2c2cccc([N+](=O)[O-])c2)cc1Cl` the T/C (dose: 15.0 mg/kg/injection, schedule: Q01DX005 (ip), vehicle: Klucel (hydroxypropylcellulose) (HPC)) was 101 % of control, the T/C (dose: 30.0 mg/kg/injection, schedule: Q01DX005 (ip), vehicle: Klucel (hydroxypropylcellulose) (HPC)) was 100 % of control and the T/C [3] was 101 % of control and 93 % of control.

With `O=C(OC1COC(Br)C(OC(=O)c2ccccc2)C1OC(=O)c1ccccc1)c1ccccc1` (configuration not stated) the T/C [15] was 100 % of control, the T/C [16] was 100 % of control and the T/C (dose: 400.0 mg/kg/injection, schedule: Q01DX009 (ip), vehicle: Klucel (hydroxypropylcellulose) (HPC)) was 90 % of control.

In the case of `CN(C)C(=O)c1cc(N2CC2)c([N+](=O)[O-])cc1[N+](=O)[O-]`, the T/C (dose: 1.56 mg/kg/injection, schedule: Q01DX009 (ip), vehicle: saline with Tween-80) is reported as 98 % of control and 117 % of control, the T/C (dose: 3.12 mg/kg/injection, schedule: Q01DX009 (ip), vehicle: saline with Tween-80) is reported as 115 % of control and the T/C (dose: 6.25 mg/kg/injection, schedule: Q01DX009 (ip), vehicle: saline with Tween-80) is reported as 100 % of control and 101 % of control and 113 % of control. The T/C (dose: 25.0 mg/kg/injection, schedule: Q01DX009 (ip), vehicle: saline with Tween-80) was 110 % of control.

`CC(=O)OC1OC(CS[As](C)CCO)C(OC(C)=O)C(OC(C)=O)C1OC(C)=O` (configuration not stated) was tested, and the T/C [14] was 110 % of control, the T/C [15] was 112 % of control and the T/C [16] was 112 % of control.

`Cc1ccc(NC(=O)Oc2cc(C)c(Cl)cc2C)c([N+](=O)[O-])c1` was tested, and the T/C [11] was 95 % of control, the T/C [12] was 87 % of control and the T/C [13] was 91 % of control.

`COc1cc(CC2C(CO)OC(=O)C2Cc2ccc3c(c2)OCO3)cc(OC)c1OC` (configuration not stated) was tested, and the T/C (dose: 50.0 mg/kg/injection, schedule: Q04DX002 (ip), vehicle: acetone) was 98 % of control, the T/C (dose: 100.0 mg/kg/injection, schedule: Q04DX002 (ip), vehicle: acetone) was 98 % of control and the T/C (dose: 200.0 mg/kg/injection, schedule: Q04DX002 (ip), vehicle: acetone) was 98 % of control.

With `CN1CCC2(C)CC(Br)(Cc3ccccc32)C1Cl` (configuration not stated) the T/C [6] was 108 % of control and the T/C [7] was 106 % of control.

`CCCCCCCCCCCCCCCC(=O)OOC(C)(C)C` was tested, and the T/C [8] was 93 % of control, the T/C [9] was 94 % of control and the T/C [10] was 93 % of control.

With `COC1(OC)C(c2cccs2)C(C#N)(C#N)C1(OC)OC` (configuration not stated) the T/C [3] was 100 % of control, the T/C [4] was 105 % of control and the T/C [5] was 100 % of control.

For `N#C/C(=N\Nc1ccccc1)C(N)=S`, the T/C [21] was 109 % of control, the T/C [22] was 93 % of control and the T/C [23] was 91 % of control.

With `O=C(Cc1ccc2c(c1)OCO2)c1ccc(O)cc1O` the T/C [8] was 99 % of control, the T/C [9] was 105 % of control and the T/C [10] was 98 % of control.
